Measurements reported in patent US20040029871A1, “Pharmaceutical compounds for treating copd” (priority 2000, published 2004).
Read-outs that look alike come from different tables or passages of the source.

Assays:
[1] = molecular target: T1, human MPO (Homo sapiens, UniProt P05164); assay: in vitro MPO assay measuring production of hypochlorus acid (HOCl); type: biochemical; settings: for Inhibition of human MPO-HOCl production, pIC50: 2.5 nM purified human MPO, 100 uM H2O2, pH 6.5, 15 min preincubation, 10 min at room temperature, pIC50 = -log IC50
T1 construct: purchased Planta
T1 sequence (P05164 279-745 limits assumed): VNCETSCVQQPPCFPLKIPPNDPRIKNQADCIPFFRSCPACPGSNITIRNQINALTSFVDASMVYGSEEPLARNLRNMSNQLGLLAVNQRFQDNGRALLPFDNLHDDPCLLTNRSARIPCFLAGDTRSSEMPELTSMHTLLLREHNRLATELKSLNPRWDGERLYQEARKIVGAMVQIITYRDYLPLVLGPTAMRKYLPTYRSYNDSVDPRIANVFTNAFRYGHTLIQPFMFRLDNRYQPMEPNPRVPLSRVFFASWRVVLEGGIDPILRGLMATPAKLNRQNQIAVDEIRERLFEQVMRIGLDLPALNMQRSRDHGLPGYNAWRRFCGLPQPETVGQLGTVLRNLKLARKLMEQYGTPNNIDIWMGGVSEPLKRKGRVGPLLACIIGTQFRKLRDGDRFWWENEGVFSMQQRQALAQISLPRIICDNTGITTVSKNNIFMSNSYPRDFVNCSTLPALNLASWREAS
T1 sequence (P05164 165-273 limits assumed): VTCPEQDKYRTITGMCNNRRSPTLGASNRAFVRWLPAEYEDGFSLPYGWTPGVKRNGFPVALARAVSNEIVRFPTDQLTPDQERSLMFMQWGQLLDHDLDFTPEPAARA
Procedure: Here we describe an in vitro MPO assay that was developed to assess inhibition of enzyme activity. Essentially the MPO assay was designed to measure the production of hypochlorus acid (HOCl), which is the key physiological product generated by the enzyme in vivo. An outline of the assay reactions is given: [drawing 5]
Compounds were preincubated with the MPO enzyme in buffer for about 15 min prior to start of reaction with H2O2. The whole reaction was carried out at room temperatutre for 10 min in a 96-well plate. […] All test concentrations were done in duplicated with at least two separate determinations n=2, unless otherwise stated. The inhibitory concentration for a compound is presentated as pIC50, which is −log IC50.

[2] = test system: stimulated human neutrophils; assay: functional human neutrophil assay, HOCl production by PMA-stimulated neutrophils; type: cell-based; settings: 2x10^6 neutrophils, PMA 1 μg/ml, 15 min preincubation, 30 min at 37C, read-out: Inhibition of HOCl production by stimulated human neutrophils, pIC50 (converted)
Procedure: Here we describe the use of a functional human neutrophil assay to determine the effects of MPO inhibitors on the production of HOCl. This assay detects the production of HOCl from stimulated (e.g. PMA, LPS, fMLP, zymozan) human neutrophils. Human neutrophils were purified from fresh heparinised blood by density centrifugation on Polymorphprep (Nycomed). These neutrophils were used immediately after purification. A standard reaction mixture contained the following: 2×10^6 neutrophils, 140 mM NaCl, 5 mM taurine, 0.5 mM MgCl2, 1 mM CaCl2 and 1 mg/ml glucose. Test compounds were made up in DMSO and added to cells, with a final DMSO concentration of 0.5%. Test compounds were given 15 min preincubation at 37C with neutrophils prior to the addition of the PMA stimulant (1 μg/ml). The assay was then allowed to progress for another 30 min at 37C. At the end of the incubation, supernatants were collected by centrifugation and assayed for HOCl by using the stop/development reagent as above. All compounds were tested in duplicate with at least two separate determinations n=2 from two different donors.

[3] = read-out: Inhibition of human MPO-HOCl production, pIC50 (converted)

| SMILES | IC50 [1, 3] [nM] | also measured |
| --- | --- | --- |
| CCOC(=O)c1cccc(N)c1 [3-Aminobenzoic acid ethylester] | 631 | – |
| Cc1c[nH]c2ccccc12 [3-Methylindole] | 1260 | – |
| COc1ccc2[nH]ccc2c1 [5-Methoxyindole] | 2510 | – |
| COc1ccc2[nH]cc(CCN)c2c1 [5-Methoxytryptamine] | – | IC50 [1]: 631 nM |
| COc1ccc2[nH]cc(CCO)c2c1 [5-Methoxytryptophol] | – | Inhibition of human MPO-HOCl production, pIC50 [1]: 6.3 |
| COc1ccc2cc[nH]c2c1 [6-Methoxyindole] | 1580 | – |
| Nc1ccc(S(=O)(=O)c2ccc(N)cc2)cc1 [Dapsone] | 631 | relative potency as inhibitor of HOCl production by human MPO (in words) ([1]; human MPO): most potent inhibitor of the sulfones/sulfonamides tested; IC50 [2]: 20000 nM |
| c1ccc2[nH]ccc2c1 [Indole] | – | IC50 [1]: 2000 nM |
| COc1ccc2[nH]cc(CCNC(C)=O)c2c1 [Melatonin] | 794 | – |
| Nc1ccc(S(=O)(=O)Nc2nccs2)cc1 [N-1(2 thiazolyl)-sulfanilamide] | – | Inhibition of human MPO-HOCl production, pIC50 [1]: 6.0 |
| CN1C(C(=O)Nc2ccccn2)=C(O)c2ccccc2S1(=O)=O [Piroxicam] | 2510 | – |
| COc1cc(NC(C)CCCN)c2ncccc2c1 (stereo not drawn) [Primaquine] | – | IC50 [2]: 12600 nM |
| Nc1ccc(S(=O)(=O)Nc2ncccn2)cc1 [Sulfadiazine] | 6310 | – |
| [H]/N=C(/N)NS(=O)(=O)c1ccc(N)cc1 [Sulfaguanidine] | 3160 | – |
| Nc1ccc(S(N)(=O)=O)cc1 [Sulfanilamide] | 1000 | IC50 [2]: 15800 nM |
| CC(=O)Nc1ccc(S(=O)(=O)Nc2ccc([N+](=O)[O-])cc2)cc1 [Sulfanitran] | 7940 | – |
| Nc1ccc(S(=O)(=O)Nc2ccccn2)cc1 [Sulfapyridine] | 2000 | IC50 [2]: 31600 nM |
| Cc1noc(NS(=O)(=O)c2ccc(N)cc2)c1C [Sulfisoxazole] | 6310 | – |
| COc1cc(C=O)ccc1O [Vanillin] | 7940 | – |
| N=C(N)c1ccc(N)cc1 [p-Aminobenzamidine] | 2510 | – |
